According to patent US11825838B2, “Tricyclic carboxamides for controlling arthropods” (Bayer CropScience Aktiengesellschaft, priority 2017, dated 2023):

Experiments:
Type in all cases: in vivo
Ctenocephalides felis = Ctenocephalides felis in vitro contact test with adult cat fleas; conditions: application rate 5 μg/cm^2 (=500 g/ha), after 48 h, adult cat fleas dead or moribund
Procedure: Ctenocephalides felis—In Vitro Contact Tests with Adult Cat Fleas
(§1) For the coating of the test tubes, 9 mg of active ingredient are first dissolved in 1 ml of acetone p.a. and then diluted to the desired concentration with acetone p.a. 250 μl of the solution are distributed homogeneously on the inner walls and the base of a 25 ml glass tube by turning and rocking on an orbital shaker (rocking rotation at 30 rpm for 2 h). With 900 ppm of active ingredient solution and internal surface area 44.7 cm^2, given homogeneous distribution, an area-based dose of 5 μg/cm^2 is achieved.
After the solvent has evaporated off, the tubes are populated with 5-10 adult cat fleas (Ctenocephalides felis), sealed with a perforated plastic lid and incubated in a horizontal position at room temperature and ambient humidity. After 48 h, efficacy is determined. To this end, the tubes are stood upright and the fleas are knocked to the base of the tube. Fleas which remain motionless at the base or move in an uncoordinated manner are considered to be dead or moribund.
100% efficacy means that all the fleas were dead or moribund. 0% efficacy means that no fleas were harmed.

Rhipicephalus sanguineus = Rhipicephalus sanguineus in vitro contact test with adult brown dog ticks; conditions: application rate 5 μg/cm^2 (=500 g/ha), after 48 h, adult dog ticks dead or moribund
Procedure: Rhipicephalus sanguineus—In Vitro Contact Tests with Adult Brown Dog Ticks
as §1
After the solvent has evaporated off, the tubes are populated with 5-10 adult dog ticks (Rhipicephalus sanguineus), sealed with a perforated plastic lid and incubated in a horizontal position in the dark at room temperature and ambient humidity. After 48 h, efficacy is determined. To this end, the ticks are knocked to the base of the tube and incubated on a hotplate at 45-50° C. for not more than 5 min. Ticks which remain motionless on the base or move in such an uncoordinated manner that they are unable to deliberately avoid the heat by climbing upwards are considered to be dead or moribund.
An efficacy of 100% means that all the ticks were dead or moribund. 0% efficacy means that none of the ticks were harmed.

Boophilus microplus = Boophilus microplus injection test; conditions: application rate 20 μg/animal, assessed after 7 days by laying of fertile eggs
Procedure: Boophilus microplus—Injection Test
(§2) Solvent: dimethyl sulfoxide
To produce a suitable active compound preparation, 10 mg of active compound are mixed with 0.5 ml of solvent and the concentrate is diluted to the desired concentration with solvent.
1 μl of the active ingredient solution is injected into the abdomen of 5 engorged adult female cattle ticks (Boophilus microplus). The animals are transferred into dishes and kept in a climate-controlled room.
Efficacy is assessed after 7 days by laying of fertile eggs. Eggs which are not visibly fertile are stored in a climate-controlled cabinet until the larvae hatch after about 42 days. An efficacy of 100% means that none of the ticks has laid any fertile eggs; 0% means that all the eggs are fertile.

Lucilia cuprina = Lucilia cuprina test; conditions: application rate 100 ppm, L1 larvae, after 2 days
Procedure: as §2
(§3) To produce a suitable active ingredient formulation, 10 mg of active ingredient are mixed with 0.5 ml of dimethyl sulfoxide, and the concentrate is diluted with water to the desired concentration.
About 20 L1 larvae of the Australian sheep blowfly (Lucilia cuprina) are transferred into a test vessel containing minced horsemeat and the active compound preparation of the desired concentration.
After 2 days, the rate of extermination in % is determined. 100% means that all the larvae have been killed; 0% means that no larvae have been killed.

Musca domestica = Musca domestica test; conditions: application rate 100 ppm, adult houseflies, after 2 days
Procedure: as §2, §3
Vessels containing a sponge treated with sugar solution and the active ingredient formulation of the desired concentration are populated with 10 adult houseflies (Musca domestica).
After 2 days, the rate of extermination in % is determined. 100% means that all of the flies have been killed; 0% means that none of the flies have been killed.

Myzus persicae = Myzus persicae spray test (MYZUPE); conditions: for efficacy: application rate 100 g/ha, spray, after 5 days
Procedure: Myzus persicae—Spray Test
(§4) To produce a suitable active ingredient formulation, 1 part by weight of active ingredient is dissolved with the specified parts by weight of solvent and made up to the desired concentration with water containing an emulsifier concentration of 1000 ppm. To produce further test concentrations, the formulation is diluted with emulsifier-containing water.
Discs of Chinese cabbage leaves (Brassica pekinensis) infested by all stages of the green peach aphid (Myzus persicae) are sprayed with an active compound preparation of the desired concentration.
After 5 days, the efficacy in % is determined. 100% means that all the aphids have been killed; 0% means that no aphids have been killed.
Myzus Persicae—Spray Test (MYZUPE)
as §4, with “compound” for “ingredient”
Discs of Chinese cabbage leaves (Brassica pekinensis) infested with all stages of the green peach aphid (Myzus persicae) are sprayed with an active compound formulation of the desired concentration.
After the desired time, the efficacy in % is determined. 100% means that all the aphids have been killed; 0% means that no aphids have been killed.

Spodoptera frugiperda = Spodoptera frugiperda spray test (SPODFR)
Procedure: Spodoptera frugiperda—Spray Test
as §4
Leaf discs of maize (Zea mays) are sprayed with an active ingredient formulation of the desired concentration and, after drying, populated with caterpillars of the armyworm (Spodoptera frugiperda).
After 7 days, the efficacy in % is determined. 100% means that all the caterpillars have been killed; 0% means that no caterpillar has been killed.
Spodoptera frugiperda—Spray Test (SPODFR)
as §4, with “compound” for “ingredient”
Leaf discs of maize (Zea mays) are sprayed with an active compound formulation of the desired concentration and, after drying, populated with caterpillars of the armyworm (Spodoptera frugiperda).
After the desired time, the efficacy in % is determined. 100% means that all the caterpillars have been killed; 0% means that no caterpillar has been killed.

Tetranychus urticae = Tetranychus urticae spray test, OP-resistant (TETRUR); conditions: for efficacy: spray, after 6 days
Procedure: Tetranychus urticae—Spray Test, OP-Resistant
as §4
Discs of bean leaves (Phaseolus vulgaris) infested with all stages of the greenhouse red spider mite (Tetranychus urticae) are sprayed with an active compound preparation of the desired concentration.
After 6 days, the efficacy in % is determined. 100% means that all the spider mites have been killed; 0% means that no spider mites have been killed.
Tetranychus urticae—Spray Test; OP-Resistant (TETRUR)
as §4, with “compound” for “ingredient”
Discs of bean leaves (Phaseolus vulgaris) infested with all stages of the greenhouse red spider mite (Tetranychus urticae) are sprayed with an active compound formulation of the desired concentration.
After the desired time, the efficacy in % is determined. 100% means that all the spider mites have been killed; 0% means that no spider mites have been killed.

SMILES | efficacy (Ctenocephalides felis) [%] | efficacy (Rhipicephalus sanguineus) [%] | efficacy (Boophilus microplus) [%] | efficacy (rate of extermination) (Lucilia cuprina) [%] | efficacy (rate of extermination) (Musca domestica) [%] | efficacy (Myzus persicae) [%] | efficacy (Spodoptera frugiperda; application rate 100 g/ha, spray, after 7 days) [%] | efficacy (Tetranychus urticae; application rate 20 g/ha) [%] | efficacy (Tetranychus urticae; application rate 100 g/ha) [%] | Emax at 100 g/ha (Myzus persicae; Myzus persicae, 120 h, MYZUPE, 100 g ai/ha, 5 dat, read-out: % efficacy dat) [%] | Emax at 100 g/ha (Spodoptera frugiperda; Spodoptera frugiperda, 168 h, SPODFR, 100 g ai/ha, 7 dat, read-out: % efficacy dat) [%] | pest or weed control at 100 g/ha (Spodoptera frugiperda; Spodoptera frugiperda, 168 h, application rate 100 g/ha, spray, after 7 days, read-out: efficacy) [%] | Emax at 100 g/ha (Tetranychus urticae; Tetranychus urticae, 144 h, TETRUR, 100 g ai/ha, 6 dat, read-out: % efficacy dat) [%]
Cc1sc(-c2cnn(-c3c(Cl)cc(C(F)(C(F)(F)F)C(F)(F)F)cc3Cl)c2)cc1C(=O)NC1CC1 [I-T1-11] | 100 | 100 | 100 | 100 | 100 | 90 | 100 | 100 | 100 | – | – | – | –
O=C(NC1CC1)c1cc(-c2cnn(-c3c(Cl)cc(C(F)(C(F)(F)F)C(F)(F)F)cc3Cl)c2)sc1Br [I-T1-1] | 100 | 100 | 100 | 100 | 100 | 100 | – | 100 | – | 100 | 100 | 100 | 70
